Patent publication US7417023B2, “Targeted delivery of bioaffecting compounds for the treatment of cancer” (Faulk Pharmaceuticals, Inc., priority 2001, dated 2008)
Where two headings read alike, the source gives them in different places.

Columns and labels:
transferrin receptors = assay: regulation of transferrin receptors on drug-sensitive and drug-resistant cancer cells; assay type: cell-based; details: more on drug-resistant than on drug-sensitive cells
[1] = test system: drug-sensitive cancer cells; assay: viability of drug-sensitive cancer cells; assay type: cell-based; details: after 48 hours in a given concentration
Source text: (§1) In order to test the relationship between calcium and transferrin receptors, the effect of calcium channel inhibitors on the regulation of transferrin receptors was studied in drug-sensitive and drug-resistant cancer cells. […]. […] The addition of both iron and calcium channel blockers had no effect on cell viability.
(§2) In light of the above findings, another series of experiments were done to determine whether the restriction of iron by deferoxamine had differential effects on drug-sensitive and drug-resistant cancer cells.

[2] = test system: drug-resistant cancer cells; assay: viability of drug-resistant cancer cells; assay type: cell-based; details: after 48 hours in a given concentration
Source text: as §1, §2

[3] = test system: doxorubicin-resistant cancer cells; details: cited from earlier work
advanced ovarian cancer = assay: unpublished clinical study of 23 patients with advanced ovarian cancer; assay type: in vivo, human; details: equivalent to 1 mg doxorubicin per day, days 15 through 19 of monthly cycles; time between diagnosis and randomization 18 months; vs placebo
Experimental: There is an unpublished clinical study of 23 patients with advanced ovarian cancer who were randomized into test (12 patients) and placebo (11 patients) groups. The test group received transferrin-doxorubicin conjugates equivalent to 1 mg doxorubicin per day on days 15 through 19 of monthly treatment cycles.

[4] = test system: metastatic disease from a sarcoma
human mesothelioma cells = details: nude mice, compared to animals treated only with doxorubicin; cited from earlier work
[5] = test system: leukemic cells in peripheral blood; details: cited from earlier work

[Cl][Cd][Cl] [CdCl2, reference compound]
regulation of transferrin receptors by calcium channel blockers or iron (transferrin receptors): down-regulation of receptors

CC(=O)N(O)CCCCCNC(=O)CCC(=O)N(O)CCCCCNC(=O)CCC(=O)N(O)CCCCCN [deferoxamine]
viability [1]: 93% | viability (cells alive) [2]: 16%

COc1cccc2c1C(=O)c1c(O)c3c(c(O)c1C2=O)C[C@@](O)(C(=O)CO)C[C@@H]3O[C@H]1C[C@H](N)[C@H](O)[C@H](C)O1 [doxorubicin, reference compound]
killing of drug-resistant cancer cells [3]: not killed by 10-fold higher concentrations

transferrin-bound iron: iron bound to transferrin
regulation of transferrin receptors by calcium channel blockers or iron (transferrin receptors): down-regulated receptors much more on drug-resistant cells

transferrin-doxorubicin conjugates
Cox regression estimates of survival rates (advanced ovarian cancer): significant difference | radiological evidence of tumor ([4]; by January): no radiological evidence of tumor | metastatic lesions of the lungs ([4]; treatment begun August 2000, by November): substantially cleared of metastatic lesions | survival (human mesothelioma cells): significantly prolonging life | killing of drug-resistant cancer cells [3]: effectively kill multi-drug resistant cells | killing of drug-resistant cancer cells ([3]; listed as doxorubicin conjugates of transferrin): kill doxorubicin-resistant cancer cells | toxic effects ([5]; 7 acute leukemia patients, 1 mg/day intravenously for 5 days): no toxic effects | decrease of the number of leukemic cells in peripheral blood ([5]; 7 patients, within 10-days following therapy): 86% | extension of disease by bone marrow biopsies ([5]; before and after treatment): no extension of disease
